Assay results: ChEMBL document CHEMBL5291721, “A preclinical secondary pharmacology resource illuminates target-adverse drug reaction associations of marketed drugs” (Nat Commun, 2023)

What was measured:
[1] = molecular target: Hydroxycarboxylic acid receptor 2 (Homo sapiens, UniProt Q8TDS4)
Glucocorticoid receptor = molecular target: T1, Glucocorticoid receptor (Homo sapiens, UniProt P04150); type: functional
T1 sequence (P04150 whole entry): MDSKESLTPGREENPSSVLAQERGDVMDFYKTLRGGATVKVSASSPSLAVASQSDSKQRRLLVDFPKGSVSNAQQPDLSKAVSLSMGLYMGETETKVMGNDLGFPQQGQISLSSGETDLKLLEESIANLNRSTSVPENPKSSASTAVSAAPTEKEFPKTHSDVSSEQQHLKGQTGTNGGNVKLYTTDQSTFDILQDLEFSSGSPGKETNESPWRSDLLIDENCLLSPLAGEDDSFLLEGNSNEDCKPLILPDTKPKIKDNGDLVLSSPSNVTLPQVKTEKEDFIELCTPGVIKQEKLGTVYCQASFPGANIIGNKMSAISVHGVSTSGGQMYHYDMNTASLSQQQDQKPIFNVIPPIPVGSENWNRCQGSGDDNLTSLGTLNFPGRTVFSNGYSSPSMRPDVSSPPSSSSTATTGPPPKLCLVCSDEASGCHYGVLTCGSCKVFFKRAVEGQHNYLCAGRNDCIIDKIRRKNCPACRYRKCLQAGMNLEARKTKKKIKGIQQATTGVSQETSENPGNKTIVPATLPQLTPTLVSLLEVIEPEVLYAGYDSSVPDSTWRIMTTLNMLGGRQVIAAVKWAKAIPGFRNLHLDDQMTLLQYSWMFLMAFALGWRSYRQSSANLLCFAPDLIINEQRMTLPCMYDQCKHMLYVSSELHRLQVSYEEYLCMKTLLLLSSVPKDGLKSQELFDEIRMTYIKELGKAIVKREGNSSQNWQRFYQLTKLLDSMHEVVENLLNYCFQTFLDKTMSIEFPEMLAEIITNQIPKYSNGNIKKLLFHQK

Estrogen receptor [2] = molecular target: T2, Estrogen receptor (Homo sapiens, UniProt P03372); type: functional
T2 sequence (P03372 whole entry): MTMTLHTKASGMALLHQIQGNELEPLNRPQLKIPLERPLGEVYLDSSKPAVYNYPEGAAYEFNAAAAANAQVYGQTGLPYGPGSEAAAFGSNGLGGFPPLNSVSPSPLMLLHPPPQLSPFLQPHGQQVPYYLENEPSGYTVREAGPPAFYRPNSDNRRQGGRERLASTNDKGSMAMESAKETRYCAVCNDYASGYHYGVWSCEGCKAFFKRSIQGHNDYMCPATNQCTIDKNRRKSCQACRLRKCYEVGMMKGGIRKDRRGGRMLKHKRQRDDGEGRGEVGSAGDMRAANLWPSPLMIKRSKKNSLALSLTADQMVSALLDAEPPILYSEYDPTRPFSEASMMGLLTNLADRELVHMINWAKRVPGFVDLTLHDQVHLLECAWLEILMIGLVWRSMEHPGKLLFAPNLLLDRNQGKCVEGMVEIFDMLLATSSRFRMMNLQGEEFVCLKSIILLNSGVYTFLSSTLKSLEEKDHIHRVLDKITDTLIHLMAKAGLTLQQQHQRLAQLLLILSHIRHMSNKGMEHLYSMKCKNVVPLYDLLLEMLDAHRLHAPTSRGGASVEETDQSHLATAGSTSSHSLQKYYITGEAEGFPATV

Estrogen receptor [3] = molecular target: T2, Estrogen receptor; type: functional; remark: listed apart in the source
Cannabinoid receptor 1 = Cannabinoid receptor 1 (Homo sapiens, UniProt P21554); type: functional
Chain of Cannabinoid receptor 1 (P21554 whole entry): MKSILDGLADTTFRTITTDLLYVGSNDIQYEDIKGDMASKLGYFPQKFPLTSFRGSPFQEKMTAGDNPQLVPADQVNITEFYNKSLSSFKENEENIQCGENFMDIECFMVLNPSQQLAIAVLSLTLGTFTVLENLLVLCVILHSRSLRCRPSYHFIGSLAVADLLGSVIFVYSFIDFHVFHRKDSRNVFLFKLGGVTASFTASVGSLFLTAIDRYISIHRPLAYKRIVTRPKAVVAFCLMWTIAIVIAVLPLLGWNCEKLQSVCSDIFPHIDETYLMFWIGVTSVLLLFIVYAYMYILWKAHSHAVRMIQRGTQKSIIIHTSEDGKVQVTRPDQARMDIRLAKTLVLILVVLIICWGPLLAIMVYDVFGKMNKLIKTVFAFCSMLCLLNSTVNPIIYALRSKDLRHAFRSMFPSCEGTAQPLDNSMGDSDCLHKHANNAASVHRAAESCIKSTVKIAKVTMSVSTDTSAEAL

[4] = molecular target: 5-hydroxytryptamine receptor 5A (Homo sapiens, UniProt P47898)
Chain of 5-hydroxytryptamine receptor 5A (P47898 whole entry): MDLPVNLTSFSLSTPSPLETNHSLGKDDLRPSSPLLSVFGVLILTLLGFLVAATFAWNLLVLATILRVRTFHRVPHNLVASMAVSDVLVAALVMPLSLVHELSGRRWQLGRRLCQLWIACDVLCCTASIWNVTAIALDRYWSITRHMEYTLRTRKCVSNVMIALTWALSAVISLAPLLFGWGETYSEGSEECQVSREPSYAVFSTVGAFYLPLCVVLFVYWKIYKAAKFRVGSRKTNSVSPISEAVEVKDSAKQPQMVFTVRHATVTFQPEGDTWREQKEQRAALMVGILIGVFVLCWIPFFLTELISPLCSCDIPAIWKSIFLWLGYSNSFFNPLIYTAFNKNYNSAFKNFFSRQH

[5] = molecular target: T3, Muscarinic acetylcholine receptor M5 (Homo sapiens, UniProt P08912)
T3 sequence (P08912 whole entry): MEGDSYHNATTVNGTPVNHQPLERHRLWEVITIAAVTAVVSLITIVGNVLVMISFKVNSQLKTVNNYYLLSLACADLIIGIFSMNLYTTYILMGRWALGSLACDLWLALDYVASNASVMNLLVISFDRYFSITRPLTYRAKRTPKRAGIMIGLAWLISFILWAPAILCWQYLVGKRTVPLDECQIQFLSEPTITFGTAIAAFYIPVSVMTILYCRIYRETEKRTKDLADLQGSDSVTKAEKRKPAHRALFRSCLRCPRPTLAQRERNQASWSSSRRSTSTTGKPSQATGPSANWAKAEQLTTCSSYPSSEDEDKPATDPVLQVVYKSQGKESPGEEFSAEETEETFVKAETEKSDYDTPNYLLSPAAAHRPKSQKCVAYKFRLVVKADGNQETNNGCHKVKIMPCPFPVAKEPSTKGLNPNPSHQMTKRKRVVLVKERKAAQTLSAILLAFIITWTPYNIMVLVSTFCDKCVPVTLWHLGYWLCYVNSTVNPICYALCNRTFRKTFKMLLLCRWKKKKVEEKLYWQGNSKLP

[6] = molecular target: T4, Muscarinic acetylcholine receptor M4 (Homo sapiens, UniProt P08173)
T4 sequence (P08173 whole entry): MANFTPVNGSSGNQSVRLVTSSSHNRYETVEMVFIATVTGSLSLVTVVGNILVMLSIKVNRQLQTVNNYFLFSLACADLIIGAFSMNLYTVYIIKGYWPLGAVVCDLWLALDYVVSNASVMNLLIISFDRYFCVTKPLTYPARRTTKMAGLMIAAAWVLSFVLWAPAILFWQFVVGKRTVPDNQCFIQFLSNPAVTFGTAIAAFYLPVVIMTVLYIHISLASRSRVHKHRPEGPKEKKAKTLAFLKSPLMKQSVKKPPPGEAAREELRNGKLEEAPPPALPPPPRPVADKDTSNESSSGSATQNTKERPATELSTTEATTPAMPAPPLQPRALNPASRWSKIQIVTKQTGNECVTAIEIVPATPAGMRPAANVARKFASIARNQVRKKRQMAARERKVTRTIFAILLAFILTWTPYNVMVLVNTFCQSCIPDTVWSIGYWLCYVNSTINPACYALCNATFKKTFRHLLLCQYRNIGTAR

D(1B) dopamine receptor = D(1B) dopamine receptor (Homo sapiens, UniProt P21918)
Chain of D(1B) dopamine receptor (P21918 whole entry): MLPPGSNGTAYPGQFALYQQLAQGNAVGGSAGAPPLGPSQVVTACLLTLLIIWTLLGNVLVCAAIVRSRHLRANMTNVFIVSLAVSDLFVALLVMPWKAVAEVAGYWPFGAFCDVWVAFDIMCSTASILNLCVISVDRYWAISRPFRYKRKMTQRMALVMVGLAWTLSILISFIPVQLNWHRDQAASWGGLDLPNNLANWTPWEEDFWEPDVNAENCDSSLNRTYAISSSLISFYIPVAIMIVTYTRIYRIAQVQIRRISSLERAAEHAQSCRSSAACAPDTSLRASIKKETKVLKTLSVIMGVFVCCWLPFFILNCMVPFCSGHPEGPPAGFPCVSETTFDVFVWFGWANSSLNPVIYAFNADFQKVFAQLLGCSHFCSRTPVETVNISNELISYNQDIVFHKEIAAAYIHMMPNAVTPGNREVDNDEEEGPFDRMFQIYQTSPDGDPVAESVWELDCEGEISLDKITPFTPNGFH

[7] = molecular target: 5-hydroxytryptamine receptor 6 (Homo sapiens, UniProt P50406)
Chain of 5-hydroxytryptamine receptor 6 (P50406 whole entry): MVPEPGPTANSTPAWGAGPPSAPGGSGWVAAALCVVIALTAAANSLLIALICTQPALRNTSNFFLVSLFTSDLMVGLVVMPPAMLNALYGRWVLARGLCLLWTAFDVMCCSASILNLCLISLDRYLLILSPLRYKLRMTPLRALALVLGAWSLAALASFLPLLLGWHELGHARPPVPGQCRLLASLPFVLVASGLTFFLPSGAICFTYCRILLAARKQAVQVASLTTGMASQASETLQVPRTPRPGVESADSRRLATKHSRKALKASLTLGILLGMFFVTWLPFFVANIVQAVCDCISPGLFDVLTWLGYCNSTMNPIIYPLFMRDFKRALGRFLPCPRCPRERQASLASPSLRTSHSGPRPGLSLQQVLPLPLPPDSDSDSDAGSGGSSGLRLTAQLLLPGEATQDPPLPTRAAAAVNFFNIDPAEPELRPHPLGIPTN

[8] = molecular target: 5-hydroxytryptamine receptor 7 (Homo sapiens, UniProt P34969)
Chain of 5-hydroxytryptamine receptor 7 (P34969 whole entry): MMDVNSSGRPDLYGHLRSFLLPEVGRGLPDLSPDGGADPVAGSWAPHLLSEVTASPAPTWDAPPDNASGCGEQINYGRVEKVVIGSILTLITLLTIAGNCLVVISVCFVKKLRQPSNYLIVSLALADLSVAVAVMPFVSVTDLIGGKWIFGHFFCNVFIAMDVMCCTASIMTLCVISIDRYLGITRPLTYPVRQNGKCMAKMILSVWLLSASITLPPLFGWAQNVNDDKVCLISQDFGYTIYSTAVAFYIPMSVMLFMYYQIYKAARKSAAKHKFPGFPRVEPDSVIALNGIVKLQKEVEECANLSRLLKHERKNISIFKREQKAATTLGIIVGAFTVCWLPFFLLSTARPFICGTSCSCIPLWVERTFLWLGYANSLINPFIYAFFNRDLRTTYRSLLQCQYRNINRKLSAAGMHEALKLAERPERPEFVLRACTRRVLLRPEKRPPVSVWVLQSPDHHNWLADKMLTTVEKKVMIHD

[9] = molecular target: Gamma-aminobutyric acid type B receptor subunit 1 (Homo sapiens, UniProt Q9UBS5)
Chain of Gamma-aminobutyric acid type B receptor subunit 1 (Q9UBS5 whole entry): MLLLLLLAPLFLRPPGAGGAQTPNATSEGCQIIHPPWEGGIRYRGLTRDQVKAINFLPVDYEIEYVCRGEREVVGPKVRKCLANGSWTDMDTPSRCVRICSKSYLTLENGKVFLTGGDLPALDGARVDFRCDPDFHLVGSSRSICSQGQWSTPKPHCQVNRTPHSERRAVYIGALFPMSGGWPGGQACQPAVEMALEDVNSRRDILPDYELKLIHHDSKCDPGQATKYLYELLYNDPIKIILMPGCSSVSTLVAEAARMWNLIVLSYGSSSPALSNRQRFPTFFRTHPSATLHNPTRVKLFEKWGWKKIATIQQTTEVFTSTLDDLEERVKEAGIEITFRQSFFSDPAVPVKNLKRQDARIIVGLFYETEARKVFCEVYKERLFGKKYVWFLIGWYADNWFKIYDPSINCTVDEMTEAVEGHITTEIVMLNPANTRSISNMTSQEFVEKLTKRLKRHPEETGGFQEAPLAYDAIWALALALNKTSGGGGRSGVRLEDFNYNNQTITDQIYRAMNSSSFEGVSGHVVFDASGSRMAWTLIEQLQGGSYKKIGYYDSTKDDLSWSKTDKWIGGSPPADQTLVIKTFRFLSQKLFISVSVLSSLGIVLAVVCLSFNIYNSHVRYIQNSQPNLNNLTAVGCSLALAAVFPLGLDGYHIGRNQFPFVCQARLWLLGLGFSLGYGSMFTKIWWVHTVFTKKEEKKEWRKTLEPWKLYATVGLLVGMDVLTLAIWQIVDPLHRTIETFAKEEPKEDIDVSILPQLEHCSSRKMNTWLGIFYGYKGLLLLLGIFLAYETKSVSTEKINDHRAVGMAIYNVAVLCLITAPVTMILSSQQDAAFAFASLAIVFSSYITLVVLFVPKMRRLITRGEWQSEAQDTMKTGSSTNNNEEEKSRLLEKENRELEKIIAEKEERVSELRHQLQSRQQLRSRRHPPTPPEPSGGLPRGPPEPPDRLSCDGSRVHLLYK

[10] = molecular target: Rod cGMP-specific 3',5'-cyclic phosphodiesterase subunit alpha (Homo sapiens, UniProt P16499); type: functional
Chain of Rod cGMP-specific 3',5'-cyclic phosphodiesterase subunit alpha (P16499 whole entry): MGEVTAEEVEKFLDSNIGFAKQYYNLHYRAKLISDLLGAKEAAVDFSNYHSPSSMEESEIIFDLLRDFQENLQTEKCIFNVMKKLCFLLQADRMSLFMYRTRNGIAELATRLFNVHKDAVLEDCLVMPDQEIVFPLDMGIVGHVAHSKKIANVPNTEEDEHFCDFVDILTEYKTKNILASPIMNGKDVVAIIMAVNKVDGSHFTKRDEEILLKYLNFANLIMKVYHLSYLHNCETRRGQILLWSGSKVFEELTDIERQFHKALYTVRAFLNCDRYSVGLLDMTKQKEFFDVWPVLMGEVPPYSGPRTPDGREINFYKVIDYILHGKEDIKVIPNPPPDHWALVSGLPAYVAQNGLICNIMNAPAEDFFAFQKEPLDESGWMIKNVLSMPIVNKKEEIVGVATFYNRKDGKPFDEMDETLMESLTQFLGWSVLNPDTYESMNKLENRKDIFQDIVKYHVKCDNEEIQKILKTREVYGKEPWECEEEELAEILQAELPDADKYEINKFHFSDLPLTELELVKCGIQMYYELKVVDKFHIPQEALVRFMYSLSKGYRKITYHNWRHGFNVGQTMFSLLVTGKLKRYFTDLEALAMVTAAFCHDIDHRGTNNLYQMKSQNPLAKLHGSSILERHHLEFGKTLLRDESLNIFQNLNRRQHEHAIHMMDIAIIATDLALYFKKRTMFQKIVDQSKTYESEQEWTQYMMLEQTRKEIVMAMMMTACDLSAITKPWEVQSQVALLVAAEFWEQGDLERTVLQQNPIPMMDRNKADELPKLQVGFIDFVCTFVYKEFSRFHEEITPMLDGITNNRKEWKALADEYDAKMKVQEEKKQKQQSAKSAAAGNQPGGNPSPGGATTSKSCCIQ

[11] = molecular target: Beta-1 adrenergic receptor (Homo sapiens, UniProt P08588); type: functional, cell-based
Chain of Beta-1 adrenergic receptor (P08588 whole entry): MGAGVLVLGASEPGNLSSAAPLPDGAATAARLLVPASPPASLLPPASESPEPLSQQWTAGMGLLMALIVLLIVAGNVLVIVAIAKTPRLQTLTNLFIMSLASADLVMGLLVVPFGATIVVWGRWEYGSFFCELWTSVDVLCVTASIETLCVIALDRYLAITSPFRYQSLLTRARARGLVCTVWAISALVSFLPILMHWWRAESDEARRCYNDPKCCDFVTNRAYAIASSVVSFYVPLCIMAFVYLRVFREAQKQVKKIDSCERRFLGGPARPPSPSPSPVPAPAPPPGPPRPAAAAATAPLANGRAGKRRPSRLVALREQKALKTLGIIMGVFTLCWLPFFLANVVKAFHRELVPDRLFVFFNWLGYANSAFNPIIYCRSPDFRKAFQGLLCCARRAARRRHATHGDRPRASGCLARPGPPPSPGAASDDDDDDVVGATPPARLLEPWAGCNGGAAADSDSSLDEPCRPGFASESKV
Note: assay procedure not described here.

Chain of Hydroxycarboxylic acid receptor 2 (Q8TDS4 whole entry): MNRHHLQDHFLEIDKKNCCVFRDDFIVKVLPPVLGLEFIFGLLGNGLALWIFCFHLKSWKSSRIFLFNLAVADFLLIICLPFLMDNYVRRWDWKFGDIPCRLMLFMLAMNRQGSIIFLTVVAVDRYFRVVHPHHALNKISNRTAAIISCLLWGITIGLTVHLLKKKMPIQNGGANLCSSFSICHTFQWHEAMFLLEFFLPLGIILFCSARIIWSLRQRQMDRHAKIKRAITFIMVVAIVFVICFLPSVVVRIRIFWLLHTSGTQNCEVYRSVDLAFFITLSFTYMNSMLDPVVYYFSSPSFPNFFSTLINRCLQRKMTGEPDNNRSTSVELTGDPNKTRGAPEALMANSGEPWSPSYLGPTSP

`O=C(O[C@H]1C[N+]2(CCCOc3ccccc3)CCC1CC2)C(O)(c1cccs1)c1cccs1` [ACLIDINIUM BROMIDE] was tested, and the AC50 [1] was greater than 10 µM.

With `Cc1nnc2n1-c1ccc(Cl)cc1C(c1ccccc1)=NC2` [ALPRAZOLAM] the AC50 [1] was greater than 10 µM.

Work on `COc1ccc(-n2nc(C(N)=O)c3c2C(=O)N(c2ccc(N4CCCCC4=O)cc2)CC3)cc1` [APIXABAN] yielded an AC50 (Glucocorticoid receptor) greater than 30 µM, an AC50 (Estrogen receptor [2]) greater than 30 µM and an AC50 (Estrogen receptor [3]) greater than 30 µM.

With `CC(NC(C)(C)C)C(=O)c1cccc(Cl)c1` (centres undefined) [BUPROPION] the AC50 (Cannabinoid receptor 1) was greater than 10 µM, the AC50 [4] was greater than 10 µM and the AC50 [5] was greater than 10 µM. The AC50 [6] was greater than 10 µM, the AC50 (D(1B) dopamine receptor) was greater than 10 µM and the AC50 [7] was greater than 10 µM. For the same molecule, the AC50 [8] was greater than 10 µM and the AC50 [9] was greater than 10 µM.

`O=C1CN=C(c2ccccc2Cl)c2cc([N+](=O)[O-])ccc2N1` [CLONAZEPAM] showed an AC50 [1] greater than 10 µM.

For `CCCCCCOC(=O)NC(=N)c1ccc(NCc2nc3cc(C(=O)N(CCC(=O)OCC)c4ccccn4)ccc3n2C)cc1` [DABIGATRAN ETEXILATE], the AC50 (Glucocorticoid receptor) was greater than 30 µM, the AC50 (Estrogen receptor [2]) was greater than 30 µM and the AC50 (Estrogen receptor [3]) was greater than 30 µM.

For `Cc1ccc(-c2ncc(Cl)cc2-c2ccc(S(C)(=O)=O)cc2)cn1` [ETORICOXIB], the AC50 (Cannabinoid receptor 1) was greater than 10 µM, the AC50 [4] was greater than 10 µM and the AC50 [5] was greater than 10 µM. It also gave an AC50 [10] greater than 10 µM, an AC50 [6] greater than 10 µM and an AC50 (D(1B) dopamine receptor) greater than 10 µM. For the same molecule, the AC50 [7] was greater than 10 µM, the AC50 [8] was greater than 10 µM and the AC50 [9] was greater than 10 µM.

Work on `CC(=O)OCC(=O)[C@@]1(O)CC[C@H]2[C@@H]3CCC4=CC(=O)CC[C@]4(C)[C@@]3(F)[C@@H](O)C[C@@]21C` [FLUDROCORTISONE ACETATE] yielded an AC50 [11] greater than 30 µM.

Molecule `Cc1ccc(S(=O)(=O)NC(=O)N[C@H]2[C@H]3CC[C@@](C)([C@H]2O)C3(C)C)cc1` [GLIBORNURIDE] has an AC50 [11] greater than 30 µM.

`CN1C2CCCC1CC(NC(=O)c1nn(C)c3ccccc13)C2` (centres undefined) [GRANISETRON] showed an AC50 (Cannabinoid receptor 1) greater than 10 µM, an AC50 [4] greater than 10 µM and an AC50 [5] greater than 10 µM. For the same molecule, the AC50 [10] was greater than 10 µM, the AC50 [6] was greater than 10 µM and the AC50 (D(1B) dopamine receptor) was greater than 10 µM. For the same molecule, the AC50 [7] was greater than 10 µM and the AC50 [8] was greater than 10 µM.

`COc1ccc2c3c1O[C@H]1C(=O)CC[C@H]4[C@@H](C2)N(C)CC[C@]314` [HYDROCODONE] showed an AC50 [1] greater than 10 µM.

In the case of `CC(=O)N1CCN(c2ccc(OCC3COC(Cn4ccnc4)(c4ccc(Cl)cc4Cl)O3)cc2)CC1` (centres undefined) [KETOCONAZOLE], the AC50 (Glucocorticoid receptor) is reported as greater than 30 µM.

Work on `CCN(CC)CC(=O)Nc1c(C)cccc1C` [LIDOCAINE] yielded an AC50 [10] greater than 10 µM.

Molecule `COc1nc(C)nc(Cl)c1N=C1NCCN1` [MOXONIDINE] has an AC50 [11] greater than 30 µM.

`COC(=O)c1ccc2c(c1)NC(=O)/C2=C(\Nc1ccc(N(C)C(=O)CN2CCN(C)CC2)cc1)c1ccccc1` [NINTEDANIB] gave an AC50 (Estrogen receptor [2]) greater than 10 µM and an AC50 (Estrogen receptor [3]) greater than 30 µM.

In the case of `CN1CCCN=C1/C=C/c1cccc(O)c1` [OXANTEL], the AC50 [11] is reported as greater than 30 µM.

`CC(C)(N)Cc1ccccc1` [PHENTERMINE] was tested, and the AC50 [9] was greater than 10 µM.
